# Experimental data as given in patent publication US20250304583A1, “INHIBITING G CYCLIC AMP-RESPONSIVE ELEMENT-BINDING PROTEIN (CREB) BINDING PROTEIN (CBP)” (FORMA Therapeutics, Inc., priority 2020, published 2025).
# Where a name gives a salt, the structure may show the parent alone.
# Legend:
# [1] = tested on: panel of 10 BRD representing the various branches of the bromodomain tree; experiment: AlphaScreen panel of 10 bromodomains; assay type: binding; settings: number of bromodomains out of 10
# [2] = Dynamic vapor sorption (hygroscopicity); assay type: physicochemical; settings: relative humidity of up to 80%, dynamic vapor sorption isotherm
# Source text: Dynamic Vapor Sorption (DVS) data were collected with a SMS DVS Intrinsic from Surface Measurement Systems.
# [3] = Solid form stability at temperature and relative humidity; assay type: physicochemical; settings: temperatures up to 40° C. and relative humidity of up to 75%
Compound,activity against 10 bromodomains surveyed [1],water uptake [2] [%],stability of solid form [3]
"COC(=O)N1c2ccc3c(nc([C@H](O)c4cc(F)ccc4OC)n3[C@@H]3CCC[C@@H](C(=O)O)C3)c2CC[C@@H]1C [Compound 1, (1R,3R)-3-[(7S)-2-[(R)-(5-fluoro-2-methoxyphenyl)(hydroxy)methyl]-6-(methoxycarbonyl)-7-methyl-3H,6H,7H,8H,9H-imidazo[4,5-f]quinolin-3-yl]cyclohexane-1-carboxylic acid]",inactive against 8,,
"COC(=O)N1c2ccc3c(nc([C@H](O)c4cc(F)ccc4OC)n3[C@@H]3CCC[C@@H](C(=O)O)C3)c2CC[C@@H]1C [HCl type A salt, (1R,3R)-3-((S)-2-((R)-(5-fluoro-2-methoxyphenyl)(hydroxy)methyl)-6-(methoxycarbonyl)-7-methyl-6,7,8,9-tetrahydro-3H-imidazo[4,5-f]quinolin-3-yl) cyclohexane-1-carboxylic acid]",,6.3,stable for at least two weeks
"COC(=O)N1c2ccc3c(nc([C@H](O)c4cc(F)ccc4OC)n3[C@@H]3CCC[C@@H](C(=O)O)C3)c2CC[C@@H]1C [type B p-toluenesulfonic acid addition salt] [(1R,3R)-3-((S)-2-((R)-(5-fluoro-2-methoxyphenyl)(hydroxy)methyl)-6-(methoxycarbonyl)-7-methyl-6,7,8,9-tetrahydro-3H-imidazo[4,5-f]quinolin-3-yl) cyclohexane-1-carboxylic acid]",,2.1,stable for at least two weeks
